Literature values, collected in patent EP4026540A1, “A FILM COATED TABLET COMPRISING APIXABAN” (SANOVEL ILAC SANAYI VE TICARET A.S., priority 2021, dated 2022).

Settings: single 10 mg dose

With `COc1ccc(-n2nc(C(N)=O)c3c2C(=O)N(c2ccc(N4CCCCC4=O)cc2)CC3)cc1` [apixaban, 1-(4-methoxyphenyl)-7-oxo-6-[4-(2-oxopiperidin-1-yl)phenyl]-4,5,6,7-tetrahydro-1H-pyrazolo[3,4-c]pyridine-3-carboxamide] as the molecule, how does the oral bioavailability read?
The oral bioavailability was “about 50%”.
